The record followed here is the NIST ThermoML archive (doi:10.1016/j.jct.2013.03.023).

A word on the viscosity: it is the resistance of a fluid to flow. A word on the mass density: it is mass per unit of volume.

The conditions of the series: 101.33 kPa, Liquid; for viscosity: Capillary tube (Ostwald / Ubbelohde) method; for mass density: Vibrating tube method.

Numbers after ± are expanded uncertainties.

As to `CC(O)c1ccccc1` (configuration not stated) [1-phenylethanol], the viscosity is, setting by setting: (298.15 K) 8.703 ± 0.2 mPa·s; (303.15 K) 6.981 ± 0.16 mPa·s; (308.15 K) 5.714 ± 0.13 mPa·s; (313.15 K) 4.748 ± 0.11 mPa·s. For the same compound, the mass density runs as follows: (298.15 K) 1009 ± 1 kg/m3; (303.15 K) 1004.86 ± 1 kg/m3; (308.15 K) 1000.73 ± 1 kg/m3; (313.15 K) 996.58 ± 1 kg/m3.
Turning to `CCc1ccccc1` [ethylbenzene], the viscosity runs as follows: (298.15 K) 0.6378 ± 0.014 mPa·s; (303.15 K) 0.609 ± 0.013 mPa·s; (308.15 K) 0.5682 ± 0.012 mPa·s; (313.15 K) 0.541 ± 0.012 mPa·s. For the same compound, the mass density reads like this: (298.15 K) 862.51 ± 1 kg/m3; (303.15 K) 858.1 ± 1 kg/m3; (308.15 K) 853.68 ± 1 kg/m3; (313.15 K) 849.26 ± 1 kg/m3.
As for `O` [water], the viscosity (298.15 K) worked out at 0.891 ± 0.019 mPa·s.
